From US3969363A, “Derivatives of 1-phenoxy-3-amino-propan-2-ol and process for their production” (Cassella Farbwerke Mainkur Aktiengesellschaft, priority 1973, dated 1976)

What was measured:
[1] = target: T1, β1-receptors of the heart (Canis lupus familiaris, UniProt P79148); assay: Blocking of Isoproterenol-induced increase of maximum rate of left-ventricular pressure rise (Dp/dt max.) in anaesthetised dogs (β1-receptor inhibition); format: in vivo, mongrel dogs; settings: for ED50: dog, intravenous, 50 % inhibition of reaction to Isoproterenol 0.5 gamma/kg i.v., anaesthetised dogs, read-out: β1-receptor inhibition ED 50; for Relative β1-receptor inhibition (reference substance = 100): relative ED 50, Practolol = 100, lower = more active; for Quotient: ED 50 β2-receptor inhibition / ED 50 β1-receptor inhibition: measure of cardioselective action, higher = better; for Quotient, on basis of reference substance = 1: relative cardioselectivity factor, Practolol = 1
T1 construct: from tissue; host or cells: heart (left ventricle) of the living anaesthetised mongrel dog
T1 sequence (P79148 whole entry): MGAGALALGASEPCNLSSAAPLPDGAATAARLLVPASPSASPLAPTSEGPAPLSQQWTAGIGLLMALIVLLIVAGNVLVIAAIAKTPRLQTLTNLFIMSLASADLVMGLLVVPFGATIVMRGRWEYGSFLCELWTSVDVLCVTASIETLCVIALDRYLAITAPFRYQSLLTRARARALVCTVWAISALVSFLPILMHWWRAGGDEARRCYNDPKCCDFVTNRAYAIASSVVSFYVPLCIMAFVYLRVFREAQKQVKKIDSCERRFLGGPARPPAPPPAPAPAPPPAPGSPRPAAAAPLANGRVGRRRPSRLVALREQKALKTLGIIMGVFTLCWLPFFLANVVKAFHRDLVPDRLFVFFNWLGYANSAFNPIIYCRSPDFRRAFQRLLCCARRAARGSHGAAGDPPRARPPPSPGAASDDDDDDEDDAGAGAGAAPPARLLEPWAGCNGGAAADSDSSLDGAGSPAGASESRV
Protocol: (§1) The blocking action of the compounds according to the invention on the β1-receptors of the heart and on the β2-receptors of the cardiovascular system was investigated as follows: the blood pressure in the left-hand ventricle was measured on mongrel dogs of both sexes under anaesthesia by Chloralose-urethane-morphine and the pressure signal was continuously differentiated by means of an analogue computer (BRUSH Instruments, Cleveland/Ohio) and, inter alia, the rate of pressure increase (Dp/dt) was recorded. In addition, the perfusion of a femoral artery was measured by means of an electromagnetic flow meter (Model […] of Messrs. Statham) and the perfusion was recorded in ml/minutes. […] DUNLOP and […]: Selective blockade of adrenoceptive beta-receptors in the heart. Brit. J. Pharmac. Chemother. (1968) 32, 201-218). The substances to be tested for β-receptor blocking were administered intravenously in increasing dosages to the animals, which had been anaesthetised and stimulated by means of Isoproterenol, and the quantity of substance was determined at which a 50 % inhibition of the two reactions caused by Isoproterenol occurred (ED50). […] The higher this quotient is, the better the cardioselective action.

[2] = target: T2, β2-receptors of the cardiovascular system (Canis lupus familiaris, UniProt P54833); assay: Blocking of Isoproterenol-induced alteration of peripheral perfusion of the femoral artery in anaesthetised dogs (β2-receptor inhibition); format: in vivo, mongrel dogs; settings: for ED50: dog, intravenous, 50 % inhibition of reaction to Isoproterenol 0.05 gamma/kg intra-arterial, anaesthetised dogs, read-out: β2-receptor inhibition ED 50; for Relative β2-receptor inhibition (reference substance = 100): relative ED 50, Practolol = 100
T2 construct: from tissue; host or cells: femoral vascular bed of the living anaesthetised mongrel dog
T2 sequence (P54833 whole entry, the tested form may be a part): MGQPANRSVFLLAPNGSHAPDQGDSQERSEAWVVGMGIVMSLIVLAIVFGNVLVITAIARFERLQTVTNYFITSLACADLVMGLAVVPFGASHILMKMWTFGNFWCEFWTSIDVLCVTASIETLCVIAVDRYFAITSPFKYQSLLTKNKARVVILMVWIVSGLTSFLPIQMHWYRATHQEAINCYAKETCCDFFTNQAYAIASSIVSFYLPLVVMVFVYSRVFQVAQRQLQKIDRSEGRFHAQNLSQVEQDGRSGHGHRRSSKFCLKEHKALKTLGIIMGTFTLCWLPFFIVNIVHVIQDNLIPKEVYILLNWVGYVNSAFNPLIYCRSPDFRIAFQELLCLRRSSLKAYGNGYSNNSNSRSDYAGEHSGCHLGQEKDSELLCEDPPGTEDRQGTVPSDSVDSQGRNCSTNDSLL
Protocol: as §1

Row | SMILES | ED50 [1] [mg/kg] | Relative β1-receptor inhibition (reference substance = 100) [1] | Quotient: ED 50 β2-receptor inhibition / ED 50 β1-receptor inhibition [1] | Quotient, on basis of reference substance = 1 [1] | ED50 [2] [mg/kg] | Relative β2-receptor inhibition (reference substance = 100) [2]
1 | Cc1ccc(C(O)CC(C)NCC(O)COc2ccc(Br)cc2)cn1 (centres unmarked) [1-(4-Bromo-phenoxy)-3-(1-[6-methyl-pyridyl-3]-1-hydroxy-butyl-(3)-amino)-propan-2-ol] | 0.074 | 31.1 |  |  |  | 
2 | CCCCCOc1ccc(OCC(O)CNC(C)CC(O)c2ccc(C)nc2)cc1 (centres unmarked) [1-(4-n-Pentyloxy-phenoxy)-3-(1-[6-methyl-pyridyl-3]-1-hydroxy-butyl-(3)-amino)-propan-2-ol] | 0.057 | 29.9 | 136 | 1.2 | 7.74 | 29.2
3 | CCCOc1ccc(OCC(O)CNC(C)CC(O)c2ccc(C)nc2)cc1 (centres unmarked) [1-(4-n-Propoxy-phenoxy)-3-(1-[6-methyl-pyridyl-3]-1-hydroxy-butyl-(3)-amino)-propan-2-ol] | 0.011 | 4.6 | 171 | 1.5 | 1.8 | 6.8
4 | CCCCOc1ccc(OCC(O)CNC(C)CC(O)c2ccc(C)nc2)cc1 (centres unmarked) [1-(4n-Butoxy-phenoxy)-3-(1-[6-methyl-pyridyl-3]-1-hydroxy-butyl-(3)-amino)-propan-2-ol] | 0.067 | 28.2 | 487 | 4.4 | 32.7 | 123.2
5 | CC(=O)Nc1ccc(OCC(O)CNC(C)CC(O)c2ccc(C)nc2)cc1 (centres unmarked) [1-(p-Acetamino-phenoxy)-3-(1-[6-methyl-pyridyl-3]-1-hydroxy-butyl-(3)-amino)-propan-2-ol] | 0.012 | 5.04 | 165 | 1.5 | 1.99 | 7.5
6 | CC(=O)Nc1ccc(OCC(O)CNC(C)C)cc1 (centres unmarked) [4-(2-Hydroxy-3-isopropylamino-propoxy)-acetanilide, reference compound] | 0.238 | 100 | 110 | 1 | 26.5 | 100
